This note sets out measurements from ChEMBL document CHEMBL1201862, “PubChem BioAssay data set” (2004).

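Interpolation was linear, between the two tested concentrations surrounding the appropriate level; five concentrations were tested over 48 hours in 96-well plates. GI50 is the concentration that inhibits growth by half.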 Calls of active or inactive are those of the source. No stated cut-off is given here; in the data, active = GI50 up to about 1.1 µM and inactive = higher. Square brackets hold non-standard residues; d marks the D form. Peptide text beside a SMILES is read from it. * marks the point of attachment. AllylGly = C=CC[CH](N)C(=O)O; Boc = CC(C)(C)OC(=O)*; OtBu = CC(C)(C)O*

Assay [1] deals with MDA-N. Briefly: NCI tumour cell line growth inhibition, 48 h.
Assay [2] concerns MCF7. Briefly: NCI tumour cell line growth inhibition, 48 h.

Take `COc1cc(S(=O)(=O)Nc2nc(-c3ccc(/N=C/c4cccs4)cc3)cs2)ccc1Cl`: the GI50 is > 100 µM (inactive) in assay [1] and 36.6 µM (inactive) in assay [2]. Turning to `COC(=O)C1=C(OC(=O)/C=C/c2ccccc2)C(C(=O)OC)[C@@]2(O)[C@@H](C(=O)OC)[C@H](C)C[C@@H]1[C@@H]2C(=O)OC` (stereo not given in full), the GI50 in assay [1] was 19.7 µM (inactive); in assay [2] it was 19.3 µM (inactive).

In the case of `COc1ccc(/C=C2\OC(=O)C(Cl)=C2c2ccc(OC)cc2)cc1`, the GI50 in assay [1] is > 100 µM (inactive). As to `c1csc(-c2cscc2-c2ccsc2)c1`, the values for the GI50 in assay [1] and in assay [2] were 33.3 µM (inactive) and 30.6 µM (inactive), respectively. `C=CCC(NC(=O)C(CC(=O)OC(C)(C)C)NC(=O)OC(C)(C)C)C(=O)OC` (stereo not given) (Boc-Asp(OtBu)-[AllylGly]-OMe; configuration not given here): the figures for the GI50 in assay [1] and in assay [2] were 31 µM (inactive) and 55.8 µM (inactive), respectively. Turning to `COc1cc(OC)c2c(c1OC)OCC(Cc1ccc(O)cc1)C2=O` (stereo not given), the GI50 in assay [1] is > 25 µM (inactive). As for `Cc1nn(C(=O)Cc2ccccc2)c2c1C(c1ccccc1[N+](=O)[O-])SC(=N)N2` (stereo not given), the GI50 in assay [1] and in assay [2] was > 100 µM (inactive) in each case. Turning to `COc1ccc(Nc2nc3cc(C(F)(F)F)ccc3nc2C(=O)O)cc1`, the GI50 in assay [1] is 31 µM (inactive); in assay [2] it was 20.9 µM (inactive).

Regarding `COc1ccc(CC2c3cc(Oc4cc(CC5c6cc(OC)c(OC)cc6CCN5C)ccc4O)c(OC)cc3CCN2C)cc1` (stereo not given), the GI50 in assay [1] was 7.1 µM (inactive); in assay [2], 5.81 µM (inactive). As to `O=C1c2ccccc2C(=O)N1CCc1nc(-c2ccccc2)c[nH]1`, the GI50 in assay [1] and in assay [2] was > 100 µM (inactive) in each case.

With `c1ccc2c(OCC3CO3)ccc(OCC3CO3)c2c1` (stereo not given), the GI50 in assay [1] is 2.8 µM (inactive); in assay [2] it was 0.897 µM (active). For `CC(=O)N(C)CCc1c[nH]c2ccccc12` the same measures were > 100 µM (inactive) and > 100 µM (inactive). The matching figures for `O=C(c1ccc(Cl)c(Cl)c1)N(C(=O)N1CCN(c2ccccc2)CC1)S(=O)(=O)c1ccccc1`: 26.2 µM (inactive) and 36.1 µM (inactive). `CC12CC3(O)OC(O1)C1(COC(=O)c4ccccc4)C3CC21OC1OC(CO)C(O)C(O)C1O` (stereo not given): the GI50 in assay [1] and in assay [2] was > 100 µM (inactive) each time. In the case of `Cc1cnc2[nH]c(-c3cccc(Cl)c3)cc(=O)c2c1`, the GI50 in assay [2] was 0.381 µM (active). `CCOC(=O)CN1C(=O)c2ccc(NC(=O)C(=O)O)cc2S1(=O)=O`: the GI50 in assay [1] and in assay [2] was > 100 µM (inactive) in each case. With `CCOC(=O)c1c(NC(=O)c2ccccc2)c(C#N)c2n1CCCCC2`, the GI50 in assay [1] and in assay [2] was > 100 µM (inactive) each time.

Turning to `CN(Cc1ccccc1)Cn1ccnc1`, the figures for the GI50 in assay [1] and in assay [2] were 76 µM (inactive) and 41 µM (inactive), respectively. Turning to `COc1c(-c2nc3ccc(N4CCN(C)CC4)cc3[nH]2)cc(OC)c2[nH]c(CO)nc12`, the GI50 in assay [1] was 89.7 µM (inactive); in assay [2], 54.3 µM (inactive).

Consider `O=C1C(NCCF)=C(Cl)C(=O)c2ncccc21`, for which the GI50 in assay [2] is 0.716 µM (active).

As for `O=C(/C=C1\C[C@H]2C=Nc3ccccc3C(=O)N2C1)NCCCCNC(=O)/C=C1\C[C@H]2C=Nc3ccccc3C(=O)N2C1`, the values for the GI50 in assay [1] and in assay [2] were 11 µM (inactive) and 12.4 µM (inactive), respectively.

Turning to `Cc1ccc(/N=N/c2c(O)ccc3cc(S(=O)(=O)O)cc(S(=O)(=O)O)c23)cc1`, the GI50 in assay [1] and in assay [2] was > 100 µM (inactive) in each case. In the case of `O=C(O)CSc1n[nH]c(=O)[nH]c1=O`, the GI50 in assay [1] and in assay [2] was > 100 µM (inactive) in each case. In the case of `CCOC1=NC(C(F)(F)F)(C(F)(F)F)N=C(N2CCCCC2)O1`, the GI50 in assay [2] is > 100 µM (inactive).

Turning to `O=C(/C=C1\N=C(c2ccccc2)N(c2ccc3c(c2)Sc2cc(N4C(=O)/C(=C/C(=O)/C=C/c5ccccc5)N=C4c4ccccc4)ccc2N3)C1=O)/C=C/c1ccccc1`, the GI50 in assay [2] was 23.9 µM (inactive). For the compound `O=c1c(C(c2ccc(O)cc2)c2c(O)oc3ccccc3c2=O)c(O)oc2ccccc12`, the GI50 in assay [1] was 45.2 µM (inactive).
